How the values were obtained:
[1] = Pharmacokinetic test in SD rats; assay type: in vivo; conditions: rats; for AUC(0-inf) / AUC(0-t) / Cmax / MRT last: 10 mg/kg; for Plasma concentration: 10 mg/kg p.o.
Protocol: Experimental animals: healthy adult SD rats, male, 6 in total, divided into two groups, with 3 rats per group, aged 6-8 weeks; and body weight approximately 200-300 g. The rats were fed in rat cages, and fasted (for at least 10 hours) with free access to water one day before the experiment. On the day of experiment, the rats were weighed and marked at the tail respectively. Blank blood samples were collected respectively before drug administration. The blood samples were collected via the tail vein. Drug administration method: intragastric gavage (p.o.): intragastric gavage with drug suspension; preparation of drug suspension: approximately 10 mg of test sample was accurately weighed, dissolved in 5% DMSO (calculated proportion), and vortexed with 10% solutol HS-15 and 85% saline to obtain a suspension with a concentration of 1.0 mg/mL; and the suspension was freshly prepared before use.
Sample collection: the rats were administered a single oral dose of 10mg/kg via intragastric gavage (p.o.). Timing was started immediately after the administration was completed, and blood samples were collected at 0.5, 1, 2, 4, 6, 8, 12 and 24 hours after administration. A volume of 0.1mL of whole blood was collected into EDTA-Na2 anticoagulant tubes, mixed by inverting 3-4 times, centrifuged at 10000 g for 5 minutes at 4°C to separate the plasma, and then the plasma was stored at -80 °C until testing. The blood samples were collected via the tail vein.
Sample preparation: 1) the samples were thawed, and 15 µL of unknown plasma samples before or after administration, standard series solutions, and single blank and double blank samples were respectively transferred into 1.5 mL centrifuge tubes. 2) 15 µL of protein precipitant (methanol) and 400 µL of internal standard solution (verapamil in methanol, approximately 10 ng/mL) were added to each sample sequentially, vortexed for 2 minutes, and then centrifuged at 4°C and 12000 rpm for 10 minutes. 3) The supernatant was collected for LC-MS/MS detection.
Analytical conditions: liquid chromatography conditions: liquid chromatography system: Shimadzu Nexera X2; chromatographic column: Agilent ZORBAX XDB-C18 3.5 (2.1 × 50 mm); column temperature: 35°C; mobile phase: A-5% acetonitrile (0.1% formic acid in water), B-95% acetonitrile (0.1% formic acid in water); injection volume: 3 µL; and
flow rate: 0.5 mL/min. Gradient elution was employed, and an elution program can be seen in the table below.
Mass spectrometry conditions: mass spectrometric analysis was carried out using an electrospray ionization (ESI) source in a positive ion mode with multiple reaction monitoring (MRM). The mass spectrometer ion source parameters and compound detection parameters can be seen in the table below.
PK parameter processing: pharmacokinetic (PK) parameters were calculated according to a plasma concentration from individual plasma concentration and corresponding sampling time data using Phoenix WinNonlin software with a non-compartmental model. (1) The PK parameters used for pharmacokinetic evaluation included: Cmax, AUC0-t, AUC0-∞, Tmax and t1/2.
(2) The parameters used for bioequivalence evaluation: Cmax, AUC0-t and AUC0-∞ were used for the bioequivalence evaluation.
Cmax: maximum plasma concentration measured within specified period, presented as measured value.
Tmax: time measured to reach maximum plasma concentration, presented as measured value. If the maximum value occurred at more than one time point, Tmax was defined as the first time point at which this value was observed.
AUC0-t: area under plasma concentration-time curve from 0 to last time point t.
AUC0-∞: area under plasma concentration-time curve from 0 to infinity. Ct was the last measured concentration, and λz was the terminal elimination rate constant. AUC0−∞ = AUC0−t + (Ct)/(λz)AUC0−∞ = AUC0−t + (Ct)/(λz) [formula]
t1/2: elimination or terminal half-life, estimated by ln2/λz.

[2] = Approximate solubility in organic solvents at room temperature; assay type: physicochemical
[3] = rat, in vivo, po, intragastric gavage 10 mg/kg, Mean
[4] = rat, in vivo, po, intragastric gavage 10 mg/kg, No. 1
[5] = rat, in vivo, po, intragastric gavage 10 mg/kg, No. 2
[6] = rat, in vivo, po, intragastric gavage 10 mg/kg, No. 3

## C[C@@H](Nc1ccn2ncc(C3=NOC(C)(C)N3)c2n1)c1cc(F)cc(F)c1F [crystal form A]
[1]; [3]
  AUC(0-inf): 4800 ng·h/mL
  AUC(0-t): 4730 ng·h/mL
  Cmax: 578 ng/mL
  MRT last: 6.09 h
[1]; [4]
  AUC(0-inf): 4390 ng·h/mL
  AUC(0-t): 4320 ng·h/mL
  Cmax: 652 ng/mL
  MRT last: 6.09 h
  Tmax: 4 h
[1]; [5]
  AUC(0-inf): 3580 ng·h/mL
  AUC(0-t): 3550 ng·h/mL
  Cmax: 459 ng/mL
  MRT last: 5.52 h
[1]; [6]
  AUC(0-inf): 6440 ng·h/mL
  AUC(0-t): 6330 ng·h/mL
  Cmax: 623 ng/mL
  MRT last: 6.66 h
[1]; 0.5 h, Mean
  Plasma concentration: 224 ng/mL
[1]; 0.5 h, No. 1
  Plasma concentration: 220 ng/mL
[1]; 0.5 h, No. 2
  Plasma concentration: 168 ng/mL
[1]; 0.5 h, No. 3
  Plasma concentration: 285 ng/mL
[1]; 1 h, Mean
  Plasma concentration: 300 ng/mL
[1]; 1 h, No. 1
  Plasma concentration: 170 ng/mL
[1]; 1 h, No. 2
  Plasma concentration: 257 ng/mL
[1]; 1 h, No. 3
  Plasma concentration: 474 ng/mL
[1]; 2 h, Mean
  Plasma concentration: 457 ng/mL
[1]; 2 h, No. 1
  Plasma concentration: 448 ng/mL
[1]; 2 h, No. 2
  Plasma concentration: 453 ng/mL
[1]; 2 h, No. 3
  Plasma concentration: 470 ng/mL
[1]; 4 h, Mean
  Plasma concentration: 578 ng/mL
[1]; 4 h, No. 1
  Plasma concentration: 652 ng/mL
[1]; 4 h, No. 2
  Plasma concentration: 459 ng/mL
[1]; 4 h, No. 3
  Plasma concentration: 623 ng/mL
[1]; 6 h, Mean
  Plasma concentration: 395 ng/mL
[1]; 6 h, No. 1
  Plasma concentration: 307 ng/mL
[1]; 6 h, No. 2
  Plasma concentration: 277 ng/mL
[1]; 6 h, No. 3
  Plasma concentration: 602 ng/mL
[1]; 8 h, Mean
  Plasma concentration: 312 ng/mL
[1]; 8 h, No. 1
  Plasma concentration: 240 ng/mL
[1]; 8 h, No. 2
  Plasma concentration: 238 ng/mL
[1]; 8 h, No. 3
  Plasma concentration: 459 ng/mL
[1]; 12 h, Mean
  Plasma concentration: 93.8 ng/mL
[1]; 12 h, No. 1
  Plasma concentration: 88.3 ng/mL
[1]; 12 h, No. 2
  Plasma concentration: 47.2 ng/mL
[1]; 12 h, No. 3
  Plasma concentration: 146 ng/mL
[1]; 24 h, Mean
  Plasma concentration: 12.7 ng/mL
[1]; 24 h, No. 1
  Plasma concentration: 11.6 ng/mL
[1]; 24 h, No. 2
  Plasma concentration: 5.25 ng/mL
[1]; 24 h, No. 3
  Plasma concentration: 21.3 ng/mL
[1]; intragastric gavage 10 mg/kg, Mean
  HL_: 3.51 h
[1]; intragastric gavage 10 mg/kg, No. 1
  HL_: 3.76 h
[1]; intragastric gavage 10 mg/kg, No. 2
  HL_: 3.07 h
[1]; intragastric gavage 10 mg/kg, No. 3
  HL_: 3.70 h
[2]; Acetone
  solubility: > 40 mg/mL
[2]; Acetonitrile
  solubility: > 44 mg/mL
[2]; Dichloromethane
  solubility: > 40 mg/mL
[2]; Ethanol
  solubility: > 38 mg/mL
[2]; Ethyl acetate
  solubility: > 44 mg/mL
[2]; Isopropanol
  solubility: > 42 mg/mL
[2]; Isopropyl acetate
  solubility: > 38 mg/mL
[2]; Methanol
  solubility: > 36 mg/mL
[2]; Methyl isobutyl ketone
  solubility: > 40 mg/mL
[2]; Trichloromethane
  solubility: > 44 mg/mL
